US5468744A (priority 1994, dated 1995)
Where two headings read alike, the source gives them in different places.

How the values were obtained:
[1] = Tail-flick test, analgesic activity in male CD1 mice (oral, 15 min); format: in vivo; details: for ED50: Mus musculus, po, 0.25 h, read-out: ED50 (95% confidence interval), drug alone; for ED50 at 15 min (95% Cl's), Tramadol: tramadol component
Procedure: For each of the ratios of individual drugs used in the drug combinations tested (Table I), stock solutions were prepared that corresponded to twice the dose of each drug having a concentration expressed in mgdrug(s) per 5 mL of distilled water. For example, in the case of the 1:20 tramadol:codeine ratio, 9.1 mg of tramadol hydrochloride (=8.0 mg of tramadol as the base) and 217.1 mg of codeine phosphate (=160.0 mg of codeine as the free base) were each dissolved in separate 5 mL vials of distilled water to form individual stock solutions. Equal volumes of each of the stock solutions were then combined to prepare the final desired drug combination per 10 mL of distilled water. […] Then 10 mL/kg of the stock solution was injected into the mouse. See, Table I. Each ratio was prepared separately in a similar manner and injected in a volume of 10 mL/kg per mouse.
The preparation of different ratios of a tramadol/oxycodone combination is effected by preparing a stock solution having a concentration expressed in mgdrugs per 10 mL of dissolved water. […] Each ratio was prepared separately in a similar manner and injected in a volume of 10 mL/kg per mouse.
Some mice were dosed orally with the compositions as made in Example 1 and as shown in Table 1 and other mice were dosed orally with the compositions as made in Example 2 and as shown in Table II. The dosing volume was 10 mL/kg.
Analgesic activity was assessed employing the tail-flick test as described by F. D'Amour et al., J. Pharmacol. Exp. Ther., 72, 74 (1941). The test involved subjecting the tail of a mouse to a focused heat stimulus and monitoring the response, i.e., "flicking" (removing) of the tail from the source of the stimulus. The reaction time (latency) of the response was first measured without the administration of any drug composition, and repeated fifteen minutes after the administration of compositions of the invention wherein the components of the compositions are in various ratios. Each mouse was only subjected to one pre- and post-administration test.
The analysis of possible superadditivity for the compositions at each fixed ratio was determined as disclosed by R. J. Tallarida et al., Life Sci., 45, 947 (1989). This procedure involved determination of the total amount in the mixture that is required to produce a specified level of effect, such as 50% (ED50mix), and the corresponding total amount that would be expected under simple additivity (ED50add). Where it was established that ED50mix <ED50add for a specific fixed-ratio,then that composition ratio is superadditive. Both the 1quantities ED50mix and ED50add were random variables; ED50mix was estimated from the dose-response curve for a specific fixed-ratio; ED50add was obtained by combining the ED50 estimates for the two drugs under additivity. ED50mix was then compared to ED50add via a t-test. […] The interaction between tramadol and codeine or […] were determined at precise dosage ratios of tramadol hydrochloride and codeine or oxycodone. Multiple (typically 4-6) coded doses of each selected combination were studied for analgesic effectiveness after 15 minutes using an experimental design which permitted the complete randomization of the separate dosage forms tested.
In the Figures, the diagonal line joining the ED50 values of the two drugs given separately represents the simple additivity of a composition effects at different component ratio. The dotted adjacent lines to the diagonal line define the 95% confidence interval. ED50's falling under the curve (between the line and the origin) indicate superadditivity, i.e., unexpected enhancement of effects. The diagonal dashed lines radiating from the origin represent the dose ratios of tramadol hydrochloride to codeine phosphate (FIG. 1) or oxycodone sulfate (FIG. 2) used in mice receiving the combined drug dosages. The bars through the ED50 points for tramadol and codeine or oxycodone compositions represent the 95% confidence intervals of the ED50.

[2] = in vivo; cited from earlier work
[3] = drug alone, p.o., tail-flick, mice, 15 min

COc1ccc2c3c1O[C@H]1C(=O)CC[C@@]4(O)[C@@H](C2)N(C)CC[C@]314 [oxycodone only]
ED50 [1]: 4.2 mg/kg | Analgesia ([1]; oxycodone 0.5 mg/kg p.o., 15 min): 0/10 | Analgesia ([1]; oxycodone 1 mg/kg p.o., 15 min): 2/20 | Analgesia ([1]; oxycodone 2 mg/kg p.o., 15 min): 3/10 | Analgesia ([1]; oxycodone 3 mg/kg p.o., 15 min): 2/10 | Analgesia ([1]; oxycodone 6 mg/kg p.o., 15 min): 5/10 | Analgesia ([1]; oxycodone 10 mg/kg p.o., 15 min): 9/10 | Analgesia ([1]; oxycodone 20 mg/kg p.o., 15 min): 10/10 | Analgesia ([1]; oxycodone 30 mg/kg p.o., 15 min): 10/10 | side effects [2]: respiratory depression, constipation, tolerance and abuse liability

COc1cccc(C2(O)CCCCC2CN(C)C)c1 (stereo not drawn) [tramadol only, (1RS, 2RS) trans-2-[(dimethylamino)-methyl]-1-(3-methoxyphenyl)cyclohexanol]
ED50 at 15 min (95% Cl's), Tramadol ([1]; Table I (tramadol:codeine), p.o., 15 min): 76.8 mg/kg | ED50 at 15 min (95% Cl's), Tramadol ([1]; Table II (tramadol:oxycodone), p.o., 15 min): 76.8 mg/kg | ED50 (95% confidence interval), drug alone [1, 3]: 76.8 (59.2-99.7) mg/kg

COc1ccc2c3c1O[C@H]1C(=O)CC[C@H]4[C@@H](C2)N(C)CC[C@]314 [hydrocodone]
side effects [2]: respiratory depression, constipation, tolerance and abuse liability

COc1ccc2c3c1O[C@H]1[C@@H](O)C=C[C@H]4[C@@H](C2)N(C)CC[C@@]341 [Codeine only]
ED50 [1, 3]: 71.3 mg/kg | Analgesia ([1]; codeine 10 mg/kg p.o., 15 min): 0/10 | Analgesia ([1]; codeine 20 mg/kg p.o., 15 min): 1/10 | Analgesia ([1]; codeine 40 mg/kg p.o., 15 min): 1/10 | Analgesia ([1]; codeine 80 mg/kg p.o., 15 min): 5/10 | Analgesia ([1]; codeine 160 mg/kg p.o., 15 min): 10/10 | side effects [2]: respiratory depression, constipation, tolerance and abuse liability
